Measured values published in patent publication US10253002B2, “Compounds and methods of treating infections” (Neoculi Pty Ltd., priority 2013, dated 2019).

Legend:
Test in all cases: Broth microdilution MIC, Example 7 (NCL812 and analogues)
MRSA = assay type: cell-based, Staphylococcus aureus
In short: (§1)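 MICs in μg/ml were read as growth inhibition by eye, checked at 600 nm absorbance against drug-free wells, following CLSI broth microdilution. Strains: two MRSA, two VRE; duplicates, repeated once more when results diverged beyond one dilution step.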

VRE = assay type: cell-based, Enterococcus spp.; settings: for activity against VRE among analogues: MIC testing, two VRE strains
In short: as §1

Escherichia coli = assay type: cell-based; settings: 24 hours
Pseudomonas aeruginosa = assay type: cell-based; settings: 24 hours
[1] = isolate MRSA 1, 24 hours, 1st and 2nd replicate rows
[2] = isolate MRSA 2, 24 hours, 1st and 2nd replicate rows
[3] = isolate VRE 1, 24 hours, 1st and 2nd replicate rows
[4] = isolate VRE 2, 24 hours, 1st and 2nd replicate rows
[5] = MRSA 1, 24 hours, duplicate lines per compound
[6] = MRSA 2, 24 hours, duplicate lines per compound
[7] = VRE 1, 24 hours, duplicate lines per compound
[8] = VRE 2, 24 hours, duplicate lines per compound
[9] = E. coli, duplicate lines per compound
[10] = P. aeruginosa, duplicate lines per compound

| Compound | MIC (μg/ml) at 24 hours, MRSA 1 (MRSA; [1]) | MIC (μg/ml) at 24 hours, MRSA 2 (MRSA; [2]) | MIC (μg/ml) at 24 hours, VRE 1 (VRE; [3]) | MIC (μg/ml) at 24 hours, VRE 2 (VRE; [4]) | MIC (μg/ml) at 24 hours, E. coli (Escherichia coli; 1st and 2nd replicate rows) | MIC (μg/ml) at 24 hours, P. aeruginosa (Pseudomonas aeruginosa; 1st and 2nd replicate rows) | MIC (μg/ml) at 24 hours, MRSA 1 (MRSA; [5]) | MIC (μg/ml) at 24 hours, MRSA 2 (MRSA; [6]) | MIC (μg/ml) at 24 hours, VRE 1 (VRE; [7]) | MIC (μg/ml) at 24 hours, VRE 2 (VRE; [8]) | MIC (μg/ml) at 24 hours, E. coli (Escherichia coli; [9]) | MIC (μg/ml) at 24 hours, P. aeruginosa (Pseudomonas aeruginosa; [10]) | other results |
| --- | --- | --- | --- | --- | --- | --- | --- | --- | --- | --- | --- | --- | --- |
| COc1ccccc1C=NNC(=N)NN=Cc1ccccc1OC.Cl [NCL028] | >128 µg/mL | >128 µg/mL | >128 µg/mL | 128 µg/mL | >128 µg/mL | >128 µg/mL |  |  |  |  |  |  |  |
| Cl.N=C(NN=CC1=C(Cl)c2cc(F)ccc2OC1)NN=CC1=C(Cl)c2cc(F)ccc2OC1 [NCL 132] |  |  |  |  |  |  | >128 µg/mL | >128 µg/mL | >128 µg/mL | >128 µg/mL | >128 µg/mL | >128 µg/mL |  |
| Cc1cccc(C=NNC(=O)NN=Cc2cccc(C)c2)c1 [NCL019] | >128 µg/mL | >128 µg/mL | >128 µg/mL | >128 µg/mL | >128 µg/mL | >128 µg/mL |  |  |  |  |  |  |  |
| Cl.N=C(NN=Cc1ccc(O)cc1)NN=Cc1ccc(O)cc1 [NCL 151] |  |  |  |  |  |  | 64 µg/mL | 64 µg/mL | 128 µg/mL | 64 µg/mL | >128 µg/mL | >128 µg/mL |  |
| CC(=NNC(=N)NN)c1ccc(C(F)(F)F)cc1.Cl [NCL073] |  |  |  |  |  |  | 128 µg/mL | 128 µg/mL | 16 µg/mL | 64 µg/mL | >128 µg/mL | >128 µg/mL | activity against MRSA among analogues (MRSA; MIC testing, two MRSA strains): greatest activity; activity against VRE among analogues (VRE): greatest activity |
| Cc1cccc(/C=N/NC(=N)N)c1.Cl [NCL046] | >128 µg/mL | >128 µg/mL | >128 µg/mL | >128 µg/mL | >128 µg/mL | >128 µg/mL |  |  |  |  |  |  |  |
| N#Cc1ccc(/C=N/NC(N)=O)cc1 [NCL049] | >128 µg/mL | >128 µg/mL | >128 µg/mL | >128 µg/mL | >128 µg/mL | >128 µg/mL |  |  |  |  |  |  |  |
| Cl.N=C(N/N=C/c1ccc(Cl)nc1)N/N=C/c1ccc(Cl)nc1 [NCL 175] |  |  |  |  |  |  |  |  |  |  |  |  | MIC (μg/ml) at 24 hours, MRSA 1 (MRSA; MRSA 1, 24 hours): 64 µg/mL; MIC (μg/ml) at 24 hours, MRSA 2 (MRSA; MRSA 2, 24 hours): >128 µg/mL; MIC (μg/ml) at 24 hours, VRE 1 (VRE; VRE 1, 24 hours): 32 µg/mL; MIC (μg/ml) at 24 hours, VRE 2 (VRE; VRE 2, 24 hours): >128 µg/mL; MIC (μg/ml) at 24 hours, E. coli (Escherichia coli; E. coli): >128 µg/mL; MIC (μg/ml) at 24 hours, P. aeruginosa (Pseudomonas aeruginosa; P. aeruginosa): >128 µg/mL |
| Cl.N=C(NN=Cc1ccc(-c2ccccc2)cc1)NN=Cc1ccc(-c2ccccc2)cc1 [NCL112] |  |  |  |  |  |  | >128 µg/mL | 128 µg/mL | 64 µg/mL | 32 µg/mL | >128 µg/mL | >128 µg/mL | activity against VRE among analogues (VRE): greatest activity |
| Cl.N=C(NN=Cc1ccc2[nH]ccc2c1)NN=Cc1ccc2[nH]ccc2c1 [NCL 146] |  |  |  |  |  |  | 8 µg/mL | 16 µg/mL | 16 µg/mL | 16 µg/mL | >128 µg/mL | >128 µg/mL |  |
| Cl.N=C(N/N=C/c1ccccc1Cl)N/N=C/c1ccccc1Cl [NCL020] | >128 µg/mL | >128 µg/mL | >128 µg/mL | >128 µg/mL | >128 µg/mL | >128 µg/mL |  |  |  |  |  |  |  |
| O=C(N/N=C/c1cccc(F)c1)N/N=C/c1cccc(F)c1 [NCL004] | >128 µg/mL | >128 µg/mL | >128 µg/mL | >128 µg/mL | >128 µg/mL | >128 µg/mL |  |  |  |  |  |  |  |
| O=C(N/N=C/c1ccccc1C(F)(F)F)N/N=C/c1ccccc1C(F)(F)F [NCL013] | >128 µg/mL | >128 µg/mL | >128 µg/mL | >128 µg/mL | >128 µg/mL | >128 µg/mL |  |  |  |  |  |  |  |
